System: tracheal smooth muscle
Assay: Dilating action to contraction of tracheal smooth muscle (potassium chloride-induced contraction of isolated trachea segment, Magnus tube)
Assay type: cell-based
Conditions: 30 μM test substance, contraction induced by 72.7 mM potassium chloride, guinea pig (Hartley, male) trachea segment; for inhibition at 30 µM: Cavia porcellus, read-out: Activity (suppressing rate for contraction by potassium chloride)
Method: Each sample is tested by using two segment obtained from one animal; the trachea was removed from a guinea pig (Hartley, male, seven weeks age) and was made the segment, 6 mm in length. The segment was suspended in a Magnus tube containing a physiological salt solution of 37° C. with a flow of mixed gas consisting of 95% oxygen and 5% carbon dioxide gas. A base-line tension of 1 g was applied to the segment and, after tension of the sample became stable, the solution was exchanged with a solution containing 72.7 mM of potassium chloride to induce a contraction. When tension of the contraction by potassium chloride became stable, a compound of the formula (1) was added as a test substance to measure the change in the tension. The test substance was dissolved in dimethyl sulfoxide and added thereto. Incidentally, at the stage of addition, the final concentration of dimethyl sulfoxide was made not more than 0.3%. Changes in the tension was recorded on a recorder (R-64V, Rika Denki) after introducing to an amplifier for strain pressure (AP-621G, Nippon Koden Kogyo) via an FD pickup transducer (TB-611T, Nippon Koden Kogyo). Tension before addition of potassium chloride was set as 0 while that after addition of potassium chloride was set as 100 and the suppressing rate for contraction by potassium chloride after addition of the test substance was expressed by a relative percentage whereby the activity was determined according to the following criteria.
The Compound No. in the table is the same as that in the Production Examples.

Compound: 2-thiomethyl-7,9-dihydroxy-10,11-dihydrodibenzo[b,f]oxepin-10-one S-oxide [Compound 109]
- Activity (suppressing rate for contraction by potassium chloride): − (no suppressing action of not less than 50% was achieved at 30 μM)

Compound: O=C1Cc2ccccc2Oc2c(O)c(O)cc(O)c21 [Compound 2, 6,7,9-trihydroxy-10,11-dihydrodibenz[b,f]oxepin-10-one]
- inhibition at 30 µM: ≤ 50%

Compound: O=C1Cc2ccccc2Oc2c(O)ccc(O)c21 [Compound 7, 6,9-dihydroxy-10,11-dihydrodibenz[b,f]oxepin-10-one]
- inhibition at 30 µM: ≥ 50%

Compound: O=C1Cc2ccccc2Oc2c1ccc(O)c2O [Compound 8, 6,7-dihydroxy-10,11-dihydrodibenz[b,f]oxepin-10-one]
- inhibition at 30 µM: ≤ 50%

Compound: O=C1Cc2ccccc2Oc2cc(O)c(O)c(O)c21 [Compound 9, 7,8,9-trihydroxy-10,11-dihydrodibenz[b,f]oxepin-10-one]
- inhibition at 30 µM: ≤ 50%

Compound: Oc1cc(O)c2c(c1)Oc1ccccc1CC2 [Compound 12, 10,11-dihydrodibenz[b,f]oxepin-1,3-diol]
- inhibition at 30 µM: ≥ 50%

Compound: O=C1Cc2ccccc2Oc2cc(O)c(O)cc21 [Compound 13, 7,8-dihydroxy-10,11-dihydrodibenz[b,f]oxepin-10-one]
- inhibition at 30 µM: ≤ 50%

Compound: Oc1cc2c(cc1O)Oc1ccccc1CC2 [Compound 14, 10,11-dihydrodibenz[b,f]oxepin-2,3-diol]
- inhibition at 30 µM: ≤ 50%

Compound: O=C1Cc2ccc(Cl)cc2Oc2cc(O)cc(O)c21 [Compound 15, 3-chloro-7,9-dihydroxy-10,11-dihydrodibenz[b,f]oxepin-10-one]
- inhibition at 30 µM: ≥ 50%

Compound: Oc1cc(O)c2c(c1)Oc1cc(Cl)ccc1CC2 [Compound 16, 7-chloro-10,11-dihydrodibenz[b,f]oxepin-1,3-diol]
- inhibition at 30 µM: ≤ 50%

Compound: O=C1Cc2cc(Cl)ccc2Oc2cc(O)cc(O)c21 [Compound 19, 2-chloro-7,9-dihydroxy-10,11-dihydrodibenz[b,f]oxepin-10-one]
- inhibition at 30 µM: ≥ 50%

Compound: Oc1cc(O)c2c(c1)Oc1ccc(Cl)cc1CC2 [Compound 20, 8-chloro-10,11-dihydrodibenz[b,f]oxepin-1,3-diol]
- inhibition at 30 µM: ≤ 50%

Compound: O=C1Cc2ccc(F)cc2Oc2cc(O)cc(O)c21 [Compound 23, 3-fluoro-7,9-dihydroxy-10,11-dihydrodibenz[b,f]oxepin-10-one]
- inhibition at 30 µM: ≥ 50%

Compound: Oc1cc(O)c2c(c1)Oc1cc(F)ccc1CC2 [Compound 24, 7-fluoro-10,11-dihydrodibenz[b,f]oxepin-1,3-diol]
- inhibition at 30 µM: ≥ 50%

Compound: O=C1Cc2ccc(Cl)c(Cl)c2Oc2cc(O)cc(O)c21 [Compound 27, 3,4-dichloro-7,9-dihydroxy-10,11-dihydrodibenz[b,f]oxepin-10-one]
- inhibition at 30 µM: ≥ 50%

Compound: Oc1cc(O)c2c(c1)Oc1c(ccc(Cl)c1Cl)CC2 [Compound 28, 6,7-dichloro-10,11-dihydrodibenz[b,f]oxepin-1,3-diol]
- inhibition at 30 µM: ≤ 50%

Compound: O=C1Cc2cc(F)ccc2Oc2cc(O)cc(O)c21 [Compound 29, 2-fluoro-7,9-dihydroxy-10,11-dihydrodibenz[b,f]oxepin-10-one]
- inhibition at 30 µM: ≥ 50%

Compound: Oc1cc(O)c2c(c1)Oc1ccc(F)cc1CC2 [Compound 30, 8-fluoro-10,11-dihydrodibenz[b,f]oxepin-1,3-diol]
- inhibition at 30 µM: ≥ 50%

Compound: O=C1Cc2cc(Cl)cc(Cl)c2Oc2cc(O)cc(O)c21 [Compound 34, 2,4-dichloro-7,9-dihydroxy-10,11-dihydrodibenz[b,f]oxepin-10-one]
- inhibition at 30 µM: ≥ 50%

Compound: Oc1cc(O)c2c(c1)Oc1c(Cl)cc(Cl)cc1CC2 [Compound 35, 6,8-dichloro-10,11-dihydrodibenz[b,f]oxepin-1,3-diol]
- inhibition at 30 µM: ≤ 50%

Compound: O=C1Cc2cccc(Cl)c2Oc2cc(O)cc(O)c21 [Compound 36, 4-chloro-7,9-dihydroxy-10,11-dihydrodibenz[b,f]oxepin-10-one]
- inhibition at 30 µM: ≥ 50%

Compound: Oc1cc(O)c2c(c1)Oc1c(Cl)cccc1CC2 [Compound 37, 6-chloro-10,11-dihydrodibenz[b,f]oxepin-1,3-diol]
- inhibition at 30 µM: ≥ 50%

Reference: US6495592B1, “Tracheal smooth muscle relaxants” (Nippon Suisan Kaisha, Ltd., priority 1996, dated 2002)
